Data: patent US7759355B2, “Adenosine A2A receptor antagonists for treating restless legs syndrome or nocturnal myoclonus” (Kyowa Hakko Kirin Co., Ltd., priority 2002, dated 2010)

Experiments:
[1] = test system: parkinsonian monkeys; settings: Neurology, 52, 1673-1677 (1999); cited from earlier work
[2] = test system: patients with moderate to severe RLS; assay: Human clinical trial, RLS treatment with an A2A antagonist (IRLSRS total score and total PLMS index by polysomnography); assay type: in vivo; settings: 80 mg once a day for 6 weeks
Procedure: In order to assess the efficacy of a representative A2A antagonist in treating RLS, a clinical trial was initiated and conducted in accordance with standard procedures. Briefly, the total score in International RLS Rating Scale (IRLSRS) and total PLMS index (polysomnography; PLMS index represents the number of periodic limb movements per hour of sleep) of the patients were measured to evaluate the efficacy of Compound A in RLS [Understanding and Diagnosing Restless Legs Syndrome (2003), Restless Legs Syndrome Foundation, 819 Second Street, SW Rochester, Minn. 55902].
Scoring for IRLSRS was made according to the following Instructions for Examiner (Maximum IRLSRS total score is 40).
The Examiner was instructed to have the patient rate his/her symptoms for the following ten questions. The patient and not the examiner made the ratings, but the examiner was available to clarify any misunderstandings the patient may have had about the questions. Either the examiner or the patient marked the answers on the form. In questions 1, 2, 4, 5, 6, 9 and 10, the following scoring was used: (4) Very severe; (3) Severe; (2) Moderate; (1) Mild; and (0) None.
Patients diagnosed with idiopathic RLS were withheld from the medication from the time of screening until the end of treatment. After tapering all RLS medications, patients were screened for eligibility. At Week −2, patients were admitted to the clinic on the night preceding the visit day to be adapted to the sleep environment of the laboratory. After screening, IRLSRS total score and total PLMS index of the patients were measured on Day −1 in order to establish a baseline and to assess the range of RLS fluctuation. Only patients with moderate to severe RLS (15 and more IRLSRS total scores) were enrolled in the study.
Treatment with Compound A (80 mg, once a day) began on the day following Day −1 visit and continued for the next 6 weeks. The last dose of Compound A was taken on the day of Week 6 visit. At Week 8, patients received RLS assessments (IRLSRS total score and total PLMS index). The inhibition ratio for each score was calculated by the following equation. Inhibition Ratio(%)={[(Score at Day−1)−(Score at Week 8)]/(Score at Day−1)}×100

[3] = test system: patients with advanced Parkinson's disease; animal models; settings: animal models and early Phase II studies in patients with advanced Parkinson's disease; cited from earlier work
[4] = Week 8 vs Day-1 baseline, N = 4

Row | Compound | Hyperactivity and dyskinesia [1] | IRLSRS Total Score, Inhibition Ratio [2, 4] [%] | Total PLMS Index, Inhibition Ratio [2, 4] [%] | IRLSRS Total Score, Week 8, mean (SD) ([2]; assessed at Week 8, N = 4, baseline (Day-1) 32.5 (4.39), maximum score 40) | Total PLMS Index, Week 8, mean (SD) ([2]; assessed at Week 8, N = 4, baseline (Day-1) 45 (15.41), periodic limb movements per hour of sleep) | Effect on RLS symptoms ([2]; patients with moderate to severe RLS) | Amelioration of Parkinsonian symptoms [3]
1 | CCn1c(=O)c2c(nc(/C=C/c3ccc(OC)c(OC)c3)n2C)n(CC)c1=O [KW-6002] | without producing hyperactivity and provoking dyskinesia |  |  |  |  |  | 
2 | CCn1c(=O)c2c(nc(/C=C/c3ccc(OC)c(OC)c3)n2C)n(CC)c1=O [Compound A, (E)-8-(3,4-dimethoxystyryl)-1,3-diethyl-7-methylxanthine] |  | 29.2 | 45.2 | 23 (8.04) | 24.67 (23.89) | relief of RLS symptoms and improvement | efficacious in ameliorating Parkinsonian symptoms
